Target: Histone deacetylase
Assay: Inhibition of HDAC in human HeLa cells using Ac-Arg-Gly-Lys(Ac)-AMC as fluorescent substrate after 20 mins by fluorescence assay
Format: cell-based

| IC50 [µM] | Compound |
| --- | --- |
| 0.055 | CCC(/C=C/c1ccccc1)n1cc(/C=C/C(=O)NO)nn1 (stereo not drawn) |
| 0.132 | CCCC(/C=C/c1ccccc1)n1cc(/C=C/C(=O)NO)nn1 (stereo not drawn) |
| 0.137 | CCCCC(/C=C/c1ccccc1)n1cc(/C=C/C(=O)NO)nn1 (stereo not drawn) |
| 0.018 | CC(C)(C)C(/C=C/c1ccccc1)n1cc(/C=C/C(=O)NO)nn1 (stereo not drawn) |
| 0.838 | CC(C)CC(/C=C/c1ccccc1)n1cc(/C=C/C(=O)NO)nn1 (stereo not drawn) |
| 0.054 | O=C(/C=C/c1cn(C(/C=C/c2ccccc2)C2CCC2)nn1)NO (stereo not drawn) |
| 0.115 | O=C(/C=C/c1cn(C(/C=C/c2ccccc2)C2CCCC2)nn1)NO (stereo not drawn) |
| 0.09 | C=CCC(/C=C/c1ccccc1)n1cc(/C=C/C(=O)NO)nn1 (stereo not drawn) |
| 0.171 | O=C(/C=C/c1cn(C(/C=C/c2ccccc2)Cc2nccs2)nn1)NO (stereo not drawn) |
| 0.403 | O=C(/C=C/c1cn(C(/C=C/c2ccccc2)Cc2cccc(-c3ccccc3)c2)nn1)NO (stereo not drawn) |
| 0.51 | O=C(/C=C/c1cn(C(/C=C/c2ccccc2)Cc2cccc(Oc3ccccc3)c2)nn1)NO (stereo not drawn) |
| 0.111 | O=C(/C=C/c1cn(C(/C=C/c2ccccc2)Cc2cccc3ccccc23)nn1)NO (stereo not drawn) |
| 0.094 | O=C(/C=C/c1cn(C(/C=C/c2ccccc2)Cc2ccc3ccccc3c2)nn1)NO (stereo not drawn) |
